Laboratory results as given in US7652006B2, “Substituted 1(2H)-phthalazinones and pharmaceutical compositions thereof” (Euro-Celtique S.A., priority 1998, dated 2010).
pIC50: −log10 of the molar value.

Legend:
AMPA receptors = assay: electrophysiological assay, AMPA receptors expressed in oocyte; assay type: cell-based, rat; conditions: inhibiting or modulating AMPA receptors expressed in oocyte; read-out: AMPA IC50
Excerpt: The compounds of the present invention may be assessed by electrophysiological assays in Xenopus oocytes expressing rat whole brain poly(A)^+ RNA (see Keana et. al. J. Med. Chem. 38: 4367-4379 (1995)) or in cultured rat cortical neurons (see Woodward et. al. Mol. Pharmacol. 47: 568-581 (1995)) for AMPA receptor activity. Compounds which are useful for treating or preventing the adverse consequences of stroke, hypoglycemia, neurodegenerative disorders, anxiety, epilepsy or psychosis, or which induce analgesia, will inhibit the currents across the membranes of the oocyte expressing AMPA receptors. However, if the compound potentiates currents across the oocyte membrane, then the compound is expected to be useful in enhancing cognition or treating schizophrenia or neurodegenerative disease such as Parkinson's Disease.
The potency of antagonism or potentiation for these compounds were determined by electrophysiological assay. Potencies of selective compounds described above in inhibiting or modulating AMPA receptors expressed in oocyte and their anticonvulsant activity against maximal electroshock induced convulsion are shown in Table 1.

[1] = system: maximal electroshock induced convulsion; assay: Maximal Electroshock-induced Seizure (MES) test; assay type: in vivo, mice; conditions: Mus musculus, iv, anticonvulsant activity against maximal electroshock induced convulsion
Excerpt: The compounds of the present invention may be tested for […] anticonvulsant activity after iv or ip injection using a number of anticonvulsant tests in mice (audiogenic seizure model in DBA-2 mice. pentylenetetrazol-induced seizures in mice, maximum electroshock seizure test (MES)). The anticonvulsant activity of the AMPA antagonists may be evaluated in the Maximal Electroshock-induced Seizure (MES) test. Seizures are induced by application of current (50 mA, 60 pulses/sec, […], 1 sec duration, d.c.) through saline-coated corneal electrodes using a Ugo Basile ECT device (Model 7801). […] A tonic seizure is defined as a hindlimb extension in excess of 90 degrees from the plane of the body. Results are treated in a quintal manner. The potency of antagonism or potentiation for these compounds were determined by electrophysiological assay. Potencies of selective compounds described above in inhibiting or modulating AMPA receptors expressed in oocyte and their anticonvulsant activity against maximal electroshock induced convulsion are shown in Table 1.

Compound	melting point	pIC50 (AMPA receptors)	ED50 [1]
CC(CN(C)C)On1c(=O)nc(-c2ccc3c(c2)OCO3)c2cc3c(cc21)OCO3 (stereo not shown)	160 to 165 °C		
CC(=O)OCc1nc(-c2ccc3c(c2)OCO3)c2cc3c(cc2n1)OCO3	144 to 147 °C		
Cn1c(=O)nc(-c2ccccc2)c2cc3c(cc21)OCO3	253 to 255 °C		
c1cn(Cc2nc(-c3ccc4c(c3)OCO4)c3cc4c(cc3n2)OCO4)cn1	182 to 185 °C		
CC(C)n1c(=O)nc(-c2ccc(N(C)C)cc2)c2cc3c(cc21)OCO3	240 to 245 °C		
CC(C)n1c(=O)nc(-c2ccc3c(c2)CCO3)c2cc3c(cc21)OCO3 [4-(2,3-Dihydrobenzofuran-5-yl)-1-isopropyl-6,7-methylenedioxyquinazolin-2(1H)-one]		5.00	3.3 mg/kg
c1nc(-c2ccc3c(c2)OCO3)c2cc3c(cc2n1)OCO3 [6,7-Methylenedioxy-4-(3,4-methylenedioxyphenyl)quinazoline]	180 to 185 °C	4.96	
CC(C)n1c(=O)nc(-c2ccc3c(c2)CCC3)c2cc3c(cc21)OCO3 [1-Isopropyl-6,7-methylenedioxy-4-(5-indanyl)quinazolin-2(1H)-one]	73 to 75 °C	5.30	
CCCn1c(=O)oc2cc3c(-c4ccc5c(c4)OCO5)nc(=O)n(C(C)C)c3cc21 [1-Isopropyl-4-(3,4-methylenedioxyphenyl)-8-propyl-7-oxo-oxazol[5,4-g]quinazolin-2(1H)-one]	110 to 145 °C	5.30	
c1cc2c(cc1-c1nc(OCC3CC3)nc3cc4c(cc13)OCO4)OCO2	175 to 182 °C		
CN(C)CCc1nc(-c2ccc3c(c2)OCO3)c2cc3c(cc2n1)OCO3 [2-(2-Dimethylaminoethyl)-4-(3,4-methylenedioxyphenyl)-6,7-methylenedioxyquinazoline]		5.10	
CN(C)Cc1nc2cc3c(cc2c(-c2ccc4c(c2)OCO4)[n+]1[O-])OCO3 [2-Dimethylaminomethyl-6,7-methylenedioxy-4-(3,4-methylenedioxyphenyl)quinazoline-3-oxide]		5.00	
CCn1nc(-c2ccc3c(c2)OCO3)c2cc3c(cc2c1=O)OCO3 [2-Ethyl-4-(3,4-methylenedioxyphenyl)-6,7-methylenedioxy-1(2H) -phthalazinone]		5.52	
O=c1c2cc3c(cc2c(-c2ccc4c(c2)OCO4)nn1CCn1ccnc1)OCO3 [2-[2-(1-Imidazolyl)ethyl]-4-(3,4-methylenedioxyphenyl)-6,7-methylenedioxy-1(2H)-phthalazinone]		5.22	
ICc1nc(-c2ccc3c(c2)OCO3)c2cc3c(cc2n1)OCO3 [2-Iodomethyl-6,7-methylenedioxy-4-(3,4-methylenedioxyphenyl)quinazoline]		5.15	
c1ccc(-c2nc(-c3ccc4c(c3)OCO4)c3cc4c(cc3n2)OCO4)cc1	225 to 230 °C		
Cn1ccnc1SCc1nc(-c2ccc3c(c2)OCO3)c2cc3c(cc2n1)OCO3 [2-[(1-Methyl-2-imidazolyl)thio]methyl-6,7-methylenedioxy-4-(3,4-methylenedioxy-phenyl)quinazoline]	155 to 160 °C	5.15	
O=c1nc(-c2ccc3c(c2)OCO3)c2cc3c(cc2[nH]1)OCO3	> 300 °C		
1-[2-(N-methylpyrrolidin-1-yl)ethyl]-6,7-methylenedioxy-4-(3,4-methylenedioxyphenyl)quinazoline-2-one		5.40	
ClCCCc1nc(-c2ccc3c(c2)OCO3)c2cc3c(cc2n1)OCO3 [2-(3-Chloropropyl)-4-(3,4-methylenedioxyphenyl)-6,7-methylenedioxyquinazoline]		4.96	
[O-][n+]1c(CN2CCCC2)nc2cc3c(cc2c1-c1ccc2c(c1)OCO2)OCO3 [2-(Pyrrolidin-1-yl)methyl-6,7-methylenedioxy-4-(3,4-methylenedioxyphenyl)quinazoline-3-oxide]		5.15	
Clc1nc(-c2ccc3c(c2)OCO3)c2cc3c(cc2n1)OCO3 [2-Chloro-4-(3,4-methylenedioxyphenyl)-6,7-methylendioxyquinazoline]		5.22	

Compound	melting point	pIC50 (AMPA receptors)	ED50 [1]
CC(C)n1c(=O)nc(-c2cnc3ccccc3c2)c2cc3c(cc21)OCO3 [1-Isopropyl-6,7-methylenedioxy-4-(3-quinolyl)quinazolin-2(1H)-one]	279 to 281 °C	5.10	
c1cc2c(cc1-c1nc(CN3CCNCC3)nc3cc4c(cc13)OCO4)OCO2 [6,7-Methylenedioxy-2-(piperazin-1-yl)methyl-4-(3,4-methylenedioxyphenyl)quinazoline]		4.92	
CC(C)n1c(=O)nc(-c2ccc3c(c2)OCCO3)c2cc3oc(=O)n(C)c3cc21 [1-Isopropyl-4-(3,4-ethylenedioxyphenyl)-8-methyl-7-oxo-oxazol[5.4-g]quinazolin-2(1H)-one]		5.49	
Cc1nc(-c2ccc3c(c2)OCO3)c2cc3c(cc2n1)OCO3 [6,7-Methylenedioxy-4-(3,4-methylenedioxyphenyl)-2-methylquinazoline]		5.35	
NCCCc1nc(-c2ccc3c(c2)OCO3)c2cc3c(cc2n1)OCO3 [2-(3-aminopropyl)-6,7-methylenedioxy-4-(3,4-methylenedioxyphenyl)quinazoline]		4.92	
NCCOc1nc(-c2ccc3c(c2)OCO3)c2cc3c(cc2n1)OCO3 [2-(2-Aminoethoxy)-6,7-methylenedioxy-4-(3,4-methylenedioxyphenyl)quinazoline]	162 to 167 °C	4.92	
CN(C)CCCCCOc1nc(-c2ccc3c(c2)OCO3)c2cc3c(cc2n1)OCO3 [2-[(3-Dimethylaminopropyl)ethoxy]-6,7-methylenedioxy-4-(3,4-methylenedioxyphenyl)quinazoline]		4.92	
CC(CN(C)C)Oc1nc(-c2ccc3c(c2)OCO3)c2cc3c(cc2n1)OCO3 (stereo not shown)	172 to 175 °C		
O=c1nc(-c2ccccc2)c2cc3c(cc2[nH]1)OCO3	351 to 354 °C		
c1cn(CCOc2nc(-c3ccc4c(c3)OCO4)c3cc4c(cc3n2)OCO4)cn1 [2-[2-(Imidazol-1-yl)ethoxy]-6,7-methylenedioxy-4-(3,4-methylenedioxyphenyl)quinazoline]		5.00	
CCn1c(=O)nc(-c2ccc3ccccc3c2)c2cc3c(cc21)OCO3 [1-Ethyl-6,7-methylenedioxy-4-(2-naphthyl)quinazolin-2(1H)-one]		5.30	
O=c1nc(-c2ccc3c(c2)OCO3)c2cc3c(cc2n1CCN1CCCC1)OCO3 [1-(2-Pyrrolidinylethyl)-6,7-methylenedioxy-4(3,4-methylenedioxyphenyl)quinazolin-2(1H)-one]		5.80	
CCOC(=O)CCn1nc(-c2ccc3c(c2)OCO3)c2cc3c(cc2c1=O)OCO3 [2-[2(ethoxycarbonyl)ethyl]-4-(3,4-methylenedioxyphenyl)-6,7-methylenedioxy-1(2H)-phthalazinone]		5.52	
CC(C)n1c(=O)nc(-c2ccc3c(c2)OCCO3)c2cc3c(cc21)OCO3 [1-Isopropyl-6,7-methylenedioxy-4-(3,4-ethylenedioxyphenyl)-quinazolin-2(1H)-one]	214 to 217 °C	5.74	
c1ncn(Cc2nc(-c3ccc4c(c3)OCO4)c3cc4c(cc3n2)OCO4)n1 [6,7-Methylenedioxy-2-(1,2,4-triazol-1-yl)methyl-4-(3,4-methylenedioxyphenyl)quinazoline]	195 to 198 °C	5.05	
O=c1nc(-c2ccc3c(c2)OCO3)c2cc3c(cc2n1CCN1CCCCC1)OCO3 [1-(Piperidin-1-yl)ethyl-6,7-methylenedioxy-4-(3,4-methylenedioxyphenyl)quinazoline-2-one]		5.40	
CC(C)n1c(=O)nc(-c2ccc3ocnc3c2)c2cc3c(cc21)OCO3 [1-Isopropyl-6,7-methylenedioxy-4-(5-benzoxazole)quinazolin-2(1H)-one]	241 to 243 °C	4.89	
CC(C)n1c(=O)nc(-c2ccc3c(c2)OC(F)(F)O3)c2cc3c(cc21)OCO3 [1-Isopropyl-6,7-methylenedioxy-4-(3,4-difluoromethylenedioxyphenyl)quinazolin-2(1H)-one]	243 to 245 °C	5.70	
CC(C)n1c(=O)nc(-c2ccc3c(c2)OCO3)c2cc3oc(=O)n(Cc4ccccc4)c3cc21 [1-Isopropyl-4-(3,4-methylenedioxyphenyl)-8-benzyl-7-oxo-oxazol[5,4-g]quinazolin-2(1H)-one]		5.52	
COc1nc(-c2ccc3c(c2)OCO3)c2cc3c(cc2n1)OCO3	216 to 223 °C		
C#CCn1c(=O)nc(-c2ccc3c(c2)OCO3)c2cc3c(cc21)OCO3 [1-(2-Propynyl)-6,7-methylenedioxy-4-(3,4-methylenedioxyphenyl)quinazolin-2(1H)-one]	235 to 240 °C	5.15	
